Measured values from ChEMBL document CHEMBL6177968, “Development of sulfamoylbenzamide-based capsid assembly modulators for hepatitis B virus capsid assembly” (Eur J Med Chem, 2025).
pEC50: −log10 of the molar value.

Columns and labels:
[1] = Cytotoxicity in human HepG2.2.15 cells assessed as reduction in cell viability; type: toxicity, cell-based, HepG2 2.2.15
[2] = test system: Hepatitis B virus; assay: Antiviral activity against HBV in human HepG2.2.15 cells assessed as reduction in viral replication incubated for 5 days by real-time PCR analysis; type: functional, organism-based; settings: HepG2.2.15, 120 h
[3] = Selectivity index, ratio of CC50 for cytotoxicity in human HepG2.2.15 cells assessed as reduction in cell viability to EC50 for antiviral activity against HBV in human HepG2.2.15 cells assessed as reduction in viral replication; type: toxicity, cell-based; settings: read-out: Ratio CC50/EC50
[4] = Metabolic stability in human liver microsomes assessed as compound remaining measured after 30 mins; type: ADME, Microsome; settings: read-out: Stability
[5] = Metabolic stability in rat liver microsomes assessed as compound remaining measured after 30 mins; type: ADME, Microsome; settings: read-out: Stability
[6] = Metabolic stability in mouse liver microsomes assessed as compound remaining measured after 30 mins; type: ADME, Microsome; settings: read-out: Stability
[7] = test system: Hepatitis B virus; assay: Antiviral activity against HBV in human HepG2 cells expressing NTCP assessed as reduction in viral replication; type: functional, organism-based
[8] = test system: Hepatitis B virus; assay: Antiviral activity against HBV infected in human HepG2 cells expressing NTCP assessed as capsid associated HBV DNA level at 1 uM incubated for 6 days by Western blot analysis (reference value: 100 %); type: functional; settings: time 6 day
[9] = Cytotoxicity in human HepaRG cells assessed as reduction in cell viability; type: toxicity, cell-based
[10] = Cytotoxicity in human HepG2-hNTCP cells assessed as reduction in cell viability; type: toxicity, cell-based
[11] = Selectivity index, ratio of CC50 for cytotoxicity in human HepG2-hNTCP cells assessed as reduction in cell viability to EC50 for antiviral activity against HBV in human HepG2-hNTCP cells assessed as reduction in viral replication; type: toxicity, cell-based; settings: read-out: Ratio CC50/EC50
[12] = test system: Hepatitis B virus; assay: Antiviral activity against HBV infected in human HepG2 cells expressing NTCP assessed as intracellular HBc level at 1 uM incubated for 6 days by Western blot analysis (reference value: 100 %); type: functional; settings: time 6 day
[13] = Selectivity index, ratio of CC50 for cytotoxicity in human HepaRG cells assessed as reduction in cell viability to EC50 for antiviral activity against HBV in human HepaRG cells assessed as reduction in viral replication; type: toxicity, cell-based; settings: read-out: Ratio CC50/EC50
[14] = test system: Hepatitis B virus; assay: Antiviral activity against HBV in human HepaRG cells assessed as reduction in viral replication; type: functional, organism-based
[15] = test system: Hepatitis B virus; assay: Antiviral activity against HBV infected in human HepG2 cells expressing NTCP assessed as ratio of capsid associated HBV DNA level at 1 uM incubated for 6 days by Western blot analysis (reference value: 100 %); type: functional; settings: time 6 day
[16] = test system: Hepatitis B virus; assay: Antiviral activity against HBV infected in human HepG2 cells expressing NTCP assessed as capsid level at 1 uM incubated for 6 days by Western blot analysis (reference value: 100 %); type: functional; settings: time 6 day
[17] = test system: Hepatitis B virus; assay: Antiviral activity against HBV infected in human HepG2 cells expressing NTCP assessed as viral DNA replication at 1 uM incubated for 6 days by Southern blot analysis (reference value: 100 %); type: functional; settings: time 6 day

Row | SMILES | CC50 [1] | pEC50 [2] | selectivity ratio [3] | other results
1 | CC1(NS(=O)(=O)c2cc(C(=O)Nc3ccc(F)c(C(F)F)c3)c(N)cc2F)COC1 | 26.1 µM | 7.22 | 458 | 
2 | Nc1cc(F)c(S(=O)(=O)NCC2COC2)cc1C(=O)Nc1ccc(F)c(C(F)F)c1 | 150 µM | 6.89 | 1160 | remaining at 0.5 h [4]: 56.2%; remaining at 0.5 h [5]: 26%; remaining at 0.5 h [6]: 31.9%
3 | Nc1cc(F)c(S(=O)(=O)N2CCCOCC2)cc1C(=O)Nc1ccc(F)c(C(F)F)c1 | 5.14 µM | 7.30 | 96.2 | 
4 | Nc1cc(F)c(S(=O)(=O)N2CC3(COC3)C2)cc1C(=O)Nc1ccc(F)c(C(F)F)c1 | > 900 µM | 6.60 | > 3540 | 
5 | CN(C1COC1)S(=O)(=O)c1cc(C(=O)Nc2ccc(F)c(C(F)F)c2)c(N)cc1F | 7.68 µM | 7.15 | 115 | 
6 | O=C(Nc1cc(F)c(F)c(F)c1)c1ccc(F)c(S(=O)(=O)N2CCC(O)CC2)c1 |  |  |  | pEC50 [7]: 6.49; Activity [8]: 95%; CC50 [9]: 23 µM; CC50 [10]: 24.2 µM; selectivity ratio [11]: 75.7; Activity [12]: 82%; selectivity ratio [13]: 6.15; pEC50 [14]: 5.43; Ratio [15]: 69%; Activity [16]: 136%; Activity [17]: 61%
7 | Nc1cc(F)c(S(=O)(=O)NC2CCOC2)cc1C(=O)Nc1ccc(F)c(F)c1 (centres undefined) | 26.3 µM | 6.31 | 53.6 | 
8 | C[C@@H](NS(=O)(=O)c1cc(C(=O)Nc2ccc(F)c(C(F)F)c2)c(N)cc1F)C1COC1 | 187 µM | 6.33 | 399 | 
9 | Nc1cc(F)c(S(=O)(=O)N2CC3CCC(C2)O3)cc1C(=O)Nc1ccc(F)c(F)c1 | 14 µM | 6.44 | 38.5 | 
10 | CC1(CNS(=O)(=O)c2cc(C(=O)Nc3ccc(F)c(C(F)F)c3)c(N)cc2F)COC1 | 855 µM | 7.22 | 14300 | remaining at 0.5 h [4]: 23.6%; remaining at 0.5 h [5]: 8.38%; remaining at 0.5 h [6]: 1.37%
11 | COCCNS(=O)(=O)c1cc(C(=O)Nc2ccc(F)c(F)c2)c(N)cc1F | 97 µM | 5.52 | 32.1 | 
12 | CC(C)(NS(=O)(=O)c1cc(C(=O)Nc2ccc(F)c(C(F)F)c2)c(N)cc1F)C1COC1 | 161 µM | 6.24 | 277 | remaining at 0.5 h [4]: 17.2%; remaining at 0.5 h [5]: 5.63%; remaining at 0.5 h [6]: 0.03%
13 | Nc1cc(F)c(S(=O)(=O)NC2CCNC2)cc1C(=O)Nc1ccc(F)c(F)c1 (centres undefined) | 109 µM | 5.12 | 14.5 | 
14 | N#Cc1cc(NC(=O)c2cc(S(=O)(=O)N3CCOCC3)c(F)cc2N)ccc1F | > 900 µM | 5.52 | > 299 | 
15 | C[C@@H](CO)NS(=O)(=O)c1cc(C(=O)Nc2ccc(F)c(F)c2)c(N)cc1F | 156 µM | 5.67 | 73.7 | 
16 | Nc1cc(F)c(S(=O)(=O)N2CCOCC2)cc1C(=O)Nc1ccc(F)c(Cl)c1 | 198 µM | < 4.52 |  | 

Row | SMILES | CC50 [1] | pEC50 [2] | selectivity ratio [3] | other results
17 | CC(C)NS(=O)(=O)c1cc(C(=O)Nc2ccc(F)c(F)c2)c(N)cc1F | 9.29 µM | 6.60 | 36.8 | 
18 | Nc1cc(F)c(S(=O)(=O)N2CCOCC2)cc1C(=O)Nc1ccc(F)c(F)c1 | 248 µM | 6.39 | 610 | 
19 | Nc1cc(F)c(S(=O)(=O)N2CCOCC2)cc1C(=O)Nc1ccc(F)c(C(F)F)c1 | 681 µM | 6.80 | 4240 | 
20 | Nc1cc(F)c(S(=O)(=O)NC2CCOCC2)cc1C(=O)Nc1ccc(F)c(F)c1 | 29.5 µM | 5.85 | 21.1 | 
21 | Nc1cc(F)c(S(=O)(=O)N2CCCOCC2)cc1C(=O)Nc1ccc(F)c(F)c1 | 10.7 µM | 6.66 | 48.6 | 
22 | Nc1cc(F)c(S(=O)(=O)N2CC3COCC3C2)cc1C(=O)Nc1ccc(F)c(C(F)F)c1 (centres undefined) | > 900 µM | 7.00 | > 9330 | remaining at 0.5 h [4]: 0.76%; remaining at 0.5 h [5]: 0.79%; remaining at 0.5 h [6]: 0.09%
23 | C[C@H](CO)NS(=O)(=O)c1cc(C(=O)Nc2ccc(F)c(F)c2)c(N)cc1F | 204 µM | 6.16 | 296 | 
24 | Nc1cc(F)c(S(=O)(=O)N[C@@H]2CNC2=O)cc1C(=O)Nc1ccc(F)c(C(F)F)c1 | > 900 µM | < 4.52 |  | 
25 | Nc1cc(F)c(S(=O)(=O)NC2CNC2)cc1C(=O)Nc1ccc(F)c(F)c1 | 85.8 µM | 5.82 | 56.5 | 
26 | Nc1cc(F)c(S(=O)(=O)N[C@H]2COC(=O)C2)cc1C(=O)Nc1ccc(F)c(C(F)F)c1 | 698 µM | 5.53 | 237 | 
27 | Nc1cc(F)c(S(=O)(=O)N[C@@H]2CCOC2=O)cc1C(=O)Nc1ccc(F)c(C(F)F)c1 | 238 µM | 5.79 | 147 | 
28 | Nc1cc(F)c(S(=O)(=O)N2CC3(COC3)C2)cc1C(=O)Nc1ccc(F)c(F)c1 | 170 µM | 6.36 | 386 | 
29 | Nc1cc(F)c(S(=O)(=O)NC2CCC2)cc1C(=O)Nc1ccc(F)c(C(F)F)c1 | 22.8 µM | 6.74 | 125 | 
30 | Nc1cc(F)c(S(=O)(=O)N2CCNCC2)cc1C(=O)Nc1ccc(F)c(F)c1 | 31.5 µM | 5.92 | 26.4 | 
31 | Nc1cc(F)c(S(=O)(=O)N2CCS(=O)(=O)CC2)cc1C(=O)Nc1ccc(F)c(C(F)F)c1 | 385 µM | 6.66 | 1740 | 
32 | Cc1cc(NC(=O)c2cc(S(=O)(=O)N3CCOCC3)c(F)cc2N)ccc1F | 433 µM | 5.34 | 94.7 | 
